This is an account of results in PubChem BioAssay (NCI).

Where “and” joins values, the source holds several entries; their conditions need not be identical. Equal entries are not always repeated.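 Method: 48-hour compound exposure of cells in 96-well plates, five concentrations, linear interpolation of endpoints. GI50: concentration for 50% inhibition of growth. Definition used: TGI = concentration required for complete inhibition of growth.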

What all share (assay): NCI anticancer screen, dose series, 48 h
Assay [1] has as its system 786-0 renal.
Assay [2] relates to BT-549 breast.
Assay [3] relates to CCRF-CEM leukemia.
In assay [4] the test system is EKVX NSCLC.
In assay [5] the test system is HCT-15 colon.
In assay [6] the test system is NCI-H522 lung.
In assay [7] the test system is OVCAR-8 ovarian.
For assay [8], the system named is PC-3 prostate.
For assay [9], the system named is SK-MEL-28 melanoma.
Assay [10] concerns UO-31 renal.

Take `COc1cccc2c1nc(C(F)F)n2-c1nc(-c2ccc(NS(=O)(=O)CCN(C)C)cc2)nc(N2CCOCC2)n1`: the GI50 in assay [1] was 0.231 µM; in [2] it was 0.314 µM; in [3], 0.257 µM; in assay [4], 0.0712 µM; in [5], 0.152 µM; in assay [6], 0.081 µM. The GI50 in [7] was 0.295 µM; in [8], 0.0923 µM; in assay [9], 0.0774 µM; in assay [10] it was 0.0659 µM. Also, the TGI in assay [1] stood at 2.76 µM; in assay [2], 16 µM; in assay [3], 20.5 µM; in assay [4], 1.7 µM; in [5], 5.06 µM; in [6] it was 1.26 µM. Besides, the TGI in assay [7] was greater than 41.1 µM; in assay [8] it was 12.9 µM; in assay [9], 2.5 µM; in [10], 1.1 µM.

As to `COc1ccc(C2=NN(C(N)=S)C(c3ccc4c(c3)OCO4)C2)cc1` (stereo not given), the GI50 in assay [1] was 3.8 µM; in assay [2] it was 2.89 µM; in [3], 2.5 µM; in assay [4], 2.54 µM; in [5], 2.88 µM; in assay [6], 2.4 µM. Moreover, the GI50 is 3.29 µM in [7], 4.33 µM in [8], 9.33 µM in assay [9] and 1.91 µM in assay [10]. Moreover, the TGI in assay [1] was greater than 100 µM; in assay [2], 20.5 µM; in [3] it was 8.18 µM; in assay [4], 37.9 µM; in assay [5], greater than 100 µM; in [6], 16.8 µM. Also, the TGI is 22.9 µM in assay [7], greater than 100 µM in [8], greater than 100 µM in [9] and 7.99 µM in assay [10].

Turning to `Cc1ccc(NC(=O)c2ccc(CN3CCN(C)CC3)cc2)cc1Nc1nc(-c2cccnc2)cs1`, the GI50 in [1] is 3.53 µM and 2.84 µM; in assay [2] it was 8.5 µM and 3.79 µM; in [3], 4.14 µM and 4.81 µM; in [4] it was 13.6 µM and > 10 µM; in assay [5], 4.52 µM and 3.18 µM; in assay [6], 10.5 µM and 3.55 µM. Also, the GI50 is 6.91 µM and 3.65 µM in assay [7]; 5.94 µM and 4.99 µM in [8]; 12 µM and 2.66 µM in assay [9]; 12.4 µM and 6.42 µM in assay [10]. Also, the TGI in assay [1] was 11.5 µM and 7.92 µM; in [2], 22.1 µM and > 10 µM; in assay [3], 28.1 µM and > 10 µM; in [4], 29.8 µM and > 10 µM; in [5], 19.5 µM and > 10 µM; in assay [6], 23.4 µM and > 10 µM. Moreover, the TGI in assay [7] is 19.8 µM and > 10 µM; in assay [8], 19.7 µM and > 10 µM; in assay [9], 24.5 µM and 8.57 µM; in assay [10], 26.9 µM and > 10 µM.

For the molecule `O=c1c2ccccc2nc(-c2cccc([N+](=O)[O-])c2)n1O`, the TGI in [1] is greater than 100 µM; in assay [2], 80.8 µM; in [3], greater than 38.2 µM; in assay [4] it was greater than 100 µM; in assay [5], greater than 100 µM; in [6], greater than 88.8 µM. Also, the TGI in assay [7] was 63.9 µM; in [8], 98.7 µM; in [9], greater than 100 µM; in assay [10], greater than 100 µM.

Turning to `CC1=C(CCCOC(=O)[C@H](N)CC(C)C)C2=C(C)C3(CC3)[C@@](C)(O)C(=O)C2=C1`, the GI50 in [1] was 2.84 µM; in assay [2] it was 1.31 µM; in assay [3], 22.9 µM; in [4], 2.77 µM; in [5], 2.1 µM; in assay [6], 2.69 µM. Also, the GI50 was 2.13 µM in assay [7], 2.43 µM in assay [8], 2.11 µM in [9] and 1.42 µM in [10]. The TGI in [1] is 11.4 µM; in assay [2], 4.48 µM; in assay [3], greater than 100 µM; in assay [4] it was 8.66 µM; in [5], greater than 100 µM; in assay [6] it was 11.1 µM. Moreover, the TGI in assay [7] was greater than 33.3 µM; in assay [8], 44.1 µM; in assay [9] it was 5.51 µM; in [10] it was 4.32 µM.

Take `C=CCC1(O)c2ccccc2C(=O)c2c(OCC(=O)OCC)ccc(OCC(=O)OCC)c21` (stereo not given): the GI50 in assay [1], in [2], in [3], in [4], in assay [5] and in assay [6] was greater than 100 µM each time. Also, the GI50 in assay [7], in assay [8], in [9] and in assay [10] was greater than 100 µM throughout. Also, the TGI in [1], in assay [2], in [3], in assay [4], in assay [5] and in [6] was greater than 100 µM in each case. The TGI in assay [7], in [8], in [9] and in assay [10] was greater than 100 µM in each case.

Regarding `O=C1NN2CC(c3ccccc3)=NN=C2c2ccccc21`, the GI50 was 26.2 µM in assay [1]; 24.5 µM in [2]; 22.9 µM in assay [3]; 31.3 µM in assay [4]; 24.4 µM in [5]; 34.7 µM in assay [6]. The GI50 in assay [7] is 29.1 µM; in assay [8], 12.6 µM; in assay [9] it was 28.1 µM; in assay [10] it was 28 µM. Also, the TGI in assay [1] is 72.3 µM; in assay [2], 57 µM; in [3] it was 55.7 µM; in [4], greater than 100 µM; in assay [5], 86.3 µM; in assay [6], 77.1 µM. Moreover, the TGI in assay [7] is 74 µM; in assay [8], 33.8 µM; in assay [9] it was greater than 100 µM; in [10] it was 66.6 µM.

On to `CC(C)=CC[C@@H]1CC2(CC=C(C)C)C(=O)C(OC3(C(=O)c4ccccc4)C(=O)C4(CC=C(C)C)C[C@@H](CC=C(C)C)C(C)(C)C(CC=C(C)C)(C4=O)C3=O)(C(=O)c3ccccc3)C(=O)C(CC=C(C)C)(C2=O)C1(C)C` (stereo not given in full), for which the GI50 in [1] is 0.963 µM; in assay [2], 0.884 µM; in [3], 1.64 µM; in assay [4] it was 1.2 µM; in assay [5] it was 1.41 µM; in [6], 1.07 µM. For the same molecule, the GI50 in [7] is 1.7 µM; in assay [8] it was 1.28 µM; in assay [9] it was 1.18 µM; in assay [10], 1.28 µM. The TGI in assay [1] worked out at 2.61 µM; in assay [2], 1.89 µM; in assay [3], 5.52 µM; in assay [4] it was 4.2 µM; in assay [5], 5.23 µM; in [6] it was 3.72 µM. Moreover, the TGI was 6.05 µM in [7], 4.36 µM in [8], 3.25 µM in assay [9] and 4.82 µM in [10].
